pEC50: −log10 of the molar value.
Key:
[1] = system: recombinant NL4-3 virus (Renilla luciferase) in MT-2 cells; assay: HIV cell culture assay (antiviral activity, luciferase readout); type: cell-based; details: Renilla, NL43
Outline: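 MT-2 cells were infected with recombinant NL4-3 virus carrying Renilla luciferase in place of part of nef. Cells were cultured 4–5 days with serially diluted compound, and luciferase was measured with a live-cell substrate. EC50 was calculated from the median effect equation.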

[2] = Compound cytotoxicity, XTT-based colorimetric assay; type: cell-based; details: human; uninfected MT2 cells, day 4, XTT
Outline: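 Run under the antiviral-assay protocol but without virus. Viability was read on day 4 and CC50 values were derived from the readout.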

Compound | pEC50 [1] | CC50 at 4 days [2]
CCc1cc(CC)nc(-c2ccc3c(=O)n(-c4ccc(Cl)c5c(NS(C)(=O)=O)nn(C)c45)c([C@H](Cc4cc(F)cc(F)c4)NC(=O)Cn4nc(C(F)F)c5c4C(F)(F)[C@@H]4C[C@H]54)nc3c2)n1 (atropisomer, axis not shown; (P)) [Example 38, N—((S)-1-((3P)-3-(4-chloro-1-methyl-3-(methylsulfonamido)-1H-indazol-7-yl)-7-(4,6-diethylpyrimidin-2-yl)-4-oxo-3,4-dihydroquinazolin-2-yl)-2-(3,5-difluorophenyl)ethyl)-2-((3bS,4aR)-3-(difluoromethyl)-5,5-difluoro-3b,4,4a,5-tetrahydro-1H-cyclopropa[3,4]cyclopenta[1,2-c]pyrazol-1-yl)acetamide] | 9.68 | > 500 nM
CC(C)(C)S(=O)(=O)c1ccccc1-c1ccc2c(=O)n(-c3ccc(Cl)c4c(NS(C)(=O)=O)nn(CC(F)F)c34)c([C@H](Cc3cc(F)cc(F)c3)NC(=O)Cn3nc(C(F)F)c4c3C(F)(F)[C@@H]3C[C@H]43)nc2c1 (atropisomer, axis not shown) [Example 130] | 9.89 | > 500 nM
CCc1cc(C)nc(-c2ccc3c(=O)n(-c4ccc(Cl)c5c(NS(=O)(=O)C6CC6)nn(CC(F)F)c45)c([C@H](Cc4cc(F)cc(F)c4)NC(=O)Cn4nc(C(F)F)c5c4C(F)(F)[C@@H]4C[C@H]54)nc3c2)n1 (atropisomer, axis not shown; (P)) [Example 82, N—((S)-1-((3P)-3-(4-chloro-3-(cyclopropanesulfonamido)-1-(2,2-difluoroethyl)-1H-indazol-7-yl)-7-(4-ethyl-6-methylpyrimidin-2-yl)-4-oxo-3,4-dihydroquinazolin-2-yl)-2-(3,5-difluorophenyl)ethyl)-2-((3bS,4aR)-3-(difluoromethyl)-5,5-difluoro-3b,4,4a,5-tetrahydro-1H-cyclopropa[3,4]cyclopenta[1,2-c]pyrazol-1-yl)acetamide] | 9.60 | > 500 nM
Cc1nnc(-c2ccc3c(=O)n(-c4ccc(Cl)c5c(NS(C)(=O)=O)nn(C)c45)c([C@H](Cc4cc(F)cc(F)c4)NC(=O)Cn4nc(C(F)F)c5c4C(F)(F)[C@@H]4C[C@H]54)nc3c2)nc1C (atropisomer, axis not shown; (P)) [Example 55, N—((S)-1-((3P)-3-(4-chloro-1-methyl-3-(methylsulfonamido)-1H-indazol-7-yl)-7-(5,6-dimethyl-1,2,4-triazin-3-yl)-4-oxo-3,4-dihydroquinazolin-2-yl)-2-(3,5-difluorophenyl)ethyl)-2-((3bS,4aR)-3-(difluoromethyl)-5,5-difluoro-3b,4,4a,5-tetrahydro-1H-cyclopropa[3,4]cyclopenta[1,2-c]pyrazol-1-yl)acetamide] | 10.49 | > 500 nM
Cc1ccc(-c2ccc3c(=O)n(-c4ccc(Cl)c5c(NS(C)(=O)=O)nn(CC(F)(F)F)c45)c([C@H](Cc4cc(F)cc(F)c4)NC(=O)Cn4nc(C(F)F)c5c4C(F)(F)[C@@H]4C[C@H]54)nc3c2)nn1 (atropisomer, axis not shown) [Example 106, N-[(1S)-1-{3-[4-chloro-3-methanesulfonamido-1-(2,2,2-trifluoroethyl)-1H-indazol-7-yl]-7-(6-methylpyridazin-3-yl)-4-oxo-3,4-dihydroquinazolin-2-yl}-2-(3,5-difluorophenyl)ethyl]-2-[(2S,4R)-9-(difluoromethyl)-5,5-difluoro-7,8-diazatricyclo[4.3.0.0^2,^4]nona-1(6),8-dien-7-yl]acetamide] | 10.37 | > 500 nM
Cn1nc(NS(C)(=O)=O)c2c(Cl)ccc(-n3c([C@H](Cc4cc(F)cc(F)c4)NC(=O)Cn4nc(C(F)F)c5c4C(F)(F)[C@@H]4C[C@H]54)nc4cc(-c5ccnc(C6CC6)n5)ccc4c3=O)c21 (atropisomer, axis not shown; (P)) [Example 78, N—((S)-1-((3P)-3-(4-chloro-1-methyl-3-(methylsulfonamido)-1H-indazol-7-yl)-7-(2-cyclopropylpyrimidin-4-yl)-4-oxo-3,4-dihydroquinazolin-2-yl)-2-(3,5-difluorophenyl)ethyl)-2-((3bS,4aR)-3-(difluoromethyl)-5,5-difluoro-3b,4,4a,5-tetrahydro-1H-cyclopropa[3,4]cyclopenta[1,2-c]pyrazol-1-yl)acetamide] | 9.80 | > 500 nM
Cc1cc(-c2ccc3c(=O)n(-c4ccc(Cl)c5c(NS(C)(=O)=O)nn(C)c45)c([C@H](Cc4cc(F)cc(F)c4)NC(=O)Cn4nc(C(F)F)c5c4C(F)(F)[C@@H]4C[C@H]54)nc3c2)nc(CO)n1 (atropisomer, axis not shown) [Example 118, N-[(1S)-1-[3-(4-chloro-3-methanesulfonamido-1-methyl-1H-indazol-7-yl)-7-[2-(hydroxymethyl)-6-methylpyrimidin-4-yl]-4-oxo-3,4-dihydroquinazolin-2-yl]-2-(3,5-difluorophenyl)ethyl]-2-[(2S,4R)-9-(difluoromethyl)-5,5-difluoro-7,8-diazatricyclo[4.3.0.0^2,^4]nona-1(6),8-dien-7-y]acetamide] | 10.32 | > 500 nM
Cc1ncc(-c2ccc3c(=O)n(-c4ccc(Cl)c5c(NS(=O)(=O)C6CC6)nn(CC(F)F)c45)c([C@H](Cc4cc(F)cc(F)c4)NC(=O)Cn4nc(C(F)F)c5c4C(F)(F)[C@@H]4C[C@H]54)nc3c2)s1 (atropisomer, axis not shown) [Example 97, N-[(1S)-1-{3-[4-chloro-3-cyclopropanesulfonamido-1-(2,2-difluoroethyl)-1H-indazol-7-yl]-7-(2-methyl-1,3-thiazol-5-yl)-4-oxo-3,4-dihydroquinazolin-2-yl}-2-(3,5-difluorophenyl)ethyl]-2-[(2S,4R)-9-(difluoromethyl)-5,5-difluoro-7,8-diazatricyclo[4.3.0.0^2,^4]nona-1(6),8-dien-7-yl]acetamide] | 9.66 | > 500 nM
Cn1nc(NS(C)(=O)=O)c2c(Cl)ccc(-n3c([C@H](Cc4cc(F)cc(F)c4)NC(=O)Cn4nc(C(F)F)c5c4C(F)(F)[C@@H]4C[C@H]54)nc4cc(-c5cccc(C(C)(C)C)n5)ccc4c3=O)c21 (atropisomer, axis not shown; (P)) [Example 35, N—((S)-1-(7-(6-(tert-butyl)pyridin-2-yl)-(3P)-3-(4-chloro-1-methyl-3-(methylsulfonamido)-1H-indazol-7-yl)-4-oxo-3,4-dihydroquinazolin-2-yl)-2-(3,5-difluorophenyl)ethyl)-2-((3bS,4aR)-3-(difluoromethyl)-5,5-difluoro-3b,4,4a,5-tetrahydro-1H-cyclopropa[3,4]cyclopenta[1,2-c]pyrazol-1-yl)acetamide] | 9.01 | > 500 nM
Cn1nc(NS(C)(=O)=O)c2c(Cl)ccc(-n3c([C@H](Cc4cc(F)cc(F)c4)NC(=O)Cn4nc(C(F)F)c5c4C(F)(F)[C@@H]4C[C@H]54)nc4cc(-c5cccc(C(F)F)n5)ccc4c3=O)c21 (atropisomer, axis not shown) [Example 117] | 10.16 | > 500 nM
CC(C)c1nccc(-c2ccc3c(=O)n(-c4ccc(Cl)c5c(NS(=O)(=O)C6CC6)nn(CC(F)F)c45)c([C@H](Cc4cc(F)cc(F)c4)NC(=O)Cn4nc(C(F)F)c5c4C(F)(F)[C@@H]4C[C@H]54)nc3c2)n1 (atropisomer, axis not shown; (P)) [Example 91, N—((S)-1-((3P)-3-(4-chloro-3-(cyclopropanesulfonamido)-1-(2,2-difluoroethyl)-1H-indazol-7-yl)-7-(2-isopropylpyrimidin-4-yl)-4-oxo-3,4-dihydroquinazolin-2-yl)-2-(3,5-difluorophenyl)ethyl)-2-((3bS,4aR)-3-(difluoromethyl)-5,5-difluoro-3b,4,4a,5-tetrahydro-1H-cyclopropa[3,4]cyclopenta[1,2-c]pyrazol-1-yl)acetamide] | 9.72 | > 500 nM
Cc1ccc(-n2c([C@H](Cc3cc(F)cc(F)c3)NC(=O)Cn3nc(C(F)F)c4c3C(F)(F)[C@@H]3C[C@H]43)nc3cc(-c4ccccc4N(C)S(C)(=O)=O)ccc3c2=O)c2c1c(NS(=O)(=O)C1CC1)nn2CC(F)F (atropisomer, axis not shown) [Example 145, N-[(1S)-1-{3-[3-cyclopropanesulfonamido-1-(2,2-difluoroethyl)-4-methyl-1H-indazol-7-yl]-7-[2-(N-methylmethanesulfonamido)phenyl]-4-oxo-3,4-dihydroquinazolin-2-yl}-2-(3,5-difluorophenyl)ethyl]-2-[(2S,4R)-9-(difluoromethyl)-5,5-difluoro-7,8-diazatricyclo[4.3.0.0^2,^4]nona-1(6),8-dien-7-yl]acetamide] | 9.17 | > 500 nM
CS(=O)(=O)c1cccnc1-c1ccc2c(=O)n(-c3ccc(Cl)c4c(NS(=O)(=O)C5CC5)nn(CC(F)F)c34)c([C@H](Cc3cc(F)cc(F)c3)NC(=O)Cn3nc(C(F)F)c4c3C(F)(F)[C@@H]3C[C@H]43)nc2c1 (atropisomer, axis not shown; (P)) [Example 95, N—((S)-1-((3P)-3-(4-chloro-3-(cyclopropanesulfonamido)-1-(2,2-difluoroethyl)-1H-indazol-7-yl)-7-(3-(methylsulfonyl)pyridin-2-yl)-4-oxo-3,4-dihydroquinazolin-2-yl)-2-(3,5-difluorophenyl)ethyl)-2-((3bS,4aR)-3-(difluoromethyl)-5,5-difluoro-3b,4,4a,5-tetrahydro-1H-cyclopropa[3,4]cyclopenta[1,2-c]pyrazol-1-yl)acetamide] | 10.28 | > 500 nM

From patent US11541055B2, “Inhibitors of human immunodeficiency virus replication” (ViiV Healthcare UK (No. 5) LIMITED, priority 2018, dated 2023)
